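Protocol summary: plate cells (96-well), add compound at 5 concentrations, incubate 48 h, interpolate endpoints linearly. GI50: concentration for 50% inhibition of growth.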 Calls of active or inactive are those of the source. Rule as the data show it: active = GI50 up to about 1.1 µM and inactive = higher.
Assays:
Test in all cases: growth of human tumour cells (NCI), 48 h
786-0 = test system: 786-0
A498 = test system: A498
A549 = test system: A549
ACHN = test system: ACHN
BT-549 = test system: BT-549
CAKI-1 = test system: CAKI-1
COLO 205 = test system: COLO 205
DU-145 = test system: DU-145
EKVX = test system: EKVX
HCT-116 = test system: HCT-116
HCT-15 = test system: HCT-15
HL-60 = test system: HL-60
HOP-62 = test system: HOP-62
HOP-92 = test system: HOP-92
HT-29 = test system: HT-29
Hs-578T = test system: Hs-578T
IGROV-1 = test system: IGROV-1
K562 = test system: K562
KM12 = test system: KM12
LOX IMVI = test system: LOX IMVI
M14 = test system: M14
MCF7 = test system: MCF7
MDA-MB-231 = test system: MDA-MB-231
MDA-MB-435 = test system: MDA-MB-435
MDA-N = test system: MDA-N
MOLT-4 = test system: MOLT-4
Malme-3M = test system: Malme-3M
NCI-H226 = test system: NCI-H226
NCI-H23 = test system: NCI-H23
NCI-H522 = test system: NCI-H522
NCI/ADR-RES = test system: NCI/ADR-RES
OVCAR-3 = test system: OVCAR-3
OVCAR-4 = test system: OVCAR-4
OVCAR-5 = test system: OVCAR-5
OVCAR-8 = test system: OVCAR-8
PC-3 = test system: PC-3
RPMI-8226 = test system: RPMI-8226
RXF 393 = test system: RXF 393
SF-268 = test system: SF-268
SF-295 = test system: SF-295
SF-539 = test system: SF-539
SK-MEL-28 = test system: SK-MEL-28
SK-MEL-2 = test system: SK-MEL-2
SK-MEL-5 = test system: SK-MEL-5
SK-OV-3 = test system: SK-OV-3
SN12C = test system: SN12C
SNB-19 = test system: SNB-19
SR = test system: SR
SW-620 = test system: SW-620
T47D = test system: T47D
TK-10 = test system: TK-10
U-251 = test system: U-251
UACC-257 = test system: UACC-257
UACC-62 = test system: UACC-62
UO-31 = test system: UO-31
NCI-H460 = test system: NCI-H460
SNB-75 = test system: SNB-75

Compound: C=CCCCC1SC2=C(CC)CCCN2C1=O (stereo unspecified)
- GI50 (786-0): > 100 µM (inactive)
- GI50 (A498): 90.4 µM (inactive)
- GI50 (A549): 41.6 µM (inactive)
- GI50 (ACHN): 89.1 µM (inactive)
- GI50 (BT-549): 46.3 µM (inactive)
- GI50 (CAKI-1): > 100 µM (inactive)
- GI50 (COLO 205): 54 µM (inactive)
- GI50 (DU-145): > 100 µM (inactive)
- GI50 (EKVX): 78.7 µM (inactive)
- GI50 (HCT-116): 53.8 µM (inactive)
- GI50 (HCT-15): 40.2 µM
- GI50 (HL-60): 34.4 µM (inactive)
- GI50 (HOP-62): > 100 µM (inactive)
- GI50 (HOP-92): 36.9 µM (inactive)
- GI50 (HT-29): 58.3 µM (inactive)
- GI50 (Hs-578T): 47.9 µM (inactive)
- GI50 (IGROV-1): > 100 µM (inactive)
- GI50 (K562): > 100 µM (inactive)
- GI50 (KM12): 86.7 µM (inactive)
- GI50 (LOX IMVI): 89.7 µM (inactive)
- GI50 (M14): > 100 µM (inactive)
- GI50 (MCF7): 42.7 µM (inactive)
- GI50 (MDA-MB-231): 92 µM (inactive)
- GI50 (MDA-MB-435): 84.3 µM (inactive)
- GI50 (MDA-N): 70.1 µM (inactive)
- GI50 (MOLT-4): 56.8 µM (inactive)
- GI50 (Malme-3M): 48.5 µM (inactive)
- GI50 (NCI-H226): > 100 µM (inactive)
- GI50 (NCI-H23): 49.1 µM (inactive)
- GI50 (NCI-H522): 35.1 µM (inactive)
- GI50 (NCI/ADR-RES): 31.6 µM (inactive)
- GI50 (OVCAR-3): 78.7 µM (inactive)
- GI50 (OVCAR-4): 65.6 µM (inactive)
- GI50 (OVCAR-5): > 100 µM (inactive)
- GI50 (OVCAR-8): > 100 µM (inactive)
- GI50 (PC-3): 45.2 µM (inactive)
- GI50 (RPMI-8226): 38.2 µM (inactive)
- GI50 (RXF 393): 40.5 µM (inactive)
- GI50 (SF-268): 74.6 µM (inactive)
- GI50 (SF-295): 64 µM (inactive)
- GI50 (SF-539): > 100 µM (inactive)
- GI50 (SK-MEL-28): 76.6 µM (inactive)
- GI50 (SK-MEL-2): > 100 µM (inactive)
- GI50 (SK-MEL-5): 36.1 µM (inactive)
- GI50 (SK-OV-3): > 100 µM (inactive)
- GI50 (SN12C): > 100 µM (inactive)
- GI50 (SNB-19): 73.5 µM (inactive)
- GI50 (SR): 57.7 µM (inactive)
- GI50 (SW-620): 77.4 µM (inactive)
- GI50 (T47D): 32.5 µM (inactive)
- GI50 (TK-10): 84.3 µM (inactive)
- GI50 (U-251): 85.1 µM (inactive)
- GI50 (UACC-257): 27.6 µM (inactive)
- GI50 (UACC-62): 81.3 µM (inactive)
- GI50 (UO-31): 67.5 µM (inactive)

Compound: O=C1Nc2ccc(Br)cc2/C1=N/NC(=S)Nc1ccc(F)cc1
- GI50 (786-0): 7.67 µM (inactive)
- GI50 (A498): 2.26 µM (inactive)
- GI50 (ACHN): 3.43 µM (inactive)
- GI50 (BT-549): 0.395 µM (active)
- GI50 (CAKI-1): 2.12 µM (inactive)
- GI50 (COLO 205): 4.02 µM (inactive)
- GI50 (DU-145): 4.3 µM (inactive)
- GI50 (HCT-116): 3.87 µM (inactive)
- GI50 (HCT-15): 1.37 µM
- GI50 (HL-60): 1.6 µM (inactive)
- GI50 (HOP-62): 8.07 µM (inactive)
- GI50 (HOP-92): 3.61 µM (inactive)
- GI50 (HT-29): 5.38 µM (inactive)
- GI50 (Hs-578T): 12 µM (inactive)
- GI50 (IGROV-1): 0.948 µM (active)
- GI50 (K562): 3.61 µM (inactive)
- GI50 (KM12): 5.11 µM (inactive)
- GI50 (LOX IMVI): 4.7 µM (inactive)
- GI50 (MCF7): 3.43 µM (inactive)
- GI50 (MDA-MB-231): 12.6 µM (inactive)
- GI50 (MDA-MB-435): 2.4 µM (inactive)
- GI50 (MDA-N): 2.98 µM (inactive)
- GI50 (MOLT-4): 2.58 µM (inactive)
- GI50 (Malme-3M): 4.95 µM (inactive)
- GI50 (NCI-H226): 9.84 µM (inactive)
- GI50 (NCI-H23): 0.794 µM (active)
- GI50 (NCI-H460): 1.59 µM (inactive)
- GI50 (NCI-H522): 10.5 µM (inactive)
- GI50 (NCI/ADR-RES): 1.48 µM (inactive)
- GI50 (OVCAR-3): 13.3 µM (inactive)
- GI50 (OVCAR-4): 7.24 µM (inactive)
- GI50 (OVCAR-5): 43.2 µM (inactive)
- GI50 (OVCAR-8): 4.25 µM (inactive)
- GI50 (PC-3): 5.27 µM (inactive)
- GI50 (RXF 393): 1.76 µM (inactive)
- GI50 (SF-268): 4.31 µM (inactive)
- GI50 (SF-295): 3.69 µM (inactive)
- GI50 (SF-539): 9.91 µM (inactive)
- GI50 (SK-MEL-28): 3.94 µM (inactive)
- GI50 (SK-MEL-2): 10.9 µM (inactive)
- GI50 (SK-MEL-5): 3.67 µM (inactive)
- GI50 (SK-OV-3): 13.2 µM (inactive)
- GI50 (SN12C): 4.15 µM (inactive)
- GI50 (SNB-75): 11.1 µM (inactive)
- GI50 (SR): 1.71 µM (inactive)
- GI50 (SW-620): 4.78 µM (inactive)
- GI50 (T47D): 4.9 µM (inactive)
- GI50 (TK-10): 5.86 µM (inactive)
- GI50 (U-251): 3.53 µM (inactive)
- GI50 (UACC-257): 9.77 µM (inactive)
- GI50 (UACC-62): 2.56 µM (inactive)

Reference: ChEMBL document CHEMBL1201862, “PubChem BioAssay data set” (2004)
